Measured values published in ChEMBL document CHEMBL1155684, “Preparation, stereochemistry, and cytotoxic activity of the melampolides from Mikania minima” (J Nat Prod, 2000).
pIC50: −log10 of the molar value.

Legend:
Assay type in all cases: functional, cell-based
A549 = test: Cytotoxicity against human A549 cells
P388 = test: Cytotoxicity against mouse P388 cells
HT-29 = test: Cytotoxicity against human HT29 cells

SMILES | pIC50 (A549) | pIC50 (P388) | pIC50 (HT-29)
C=C1C(=O)O[C@@H]2/C=C(\COC(C)=O)CC/C=C(/CO)C[C@H](OC(C)=O)[C@@H]12 | 5.26 | 5.57 | 
C=C1C(=O)O[C@@H]2/C=C(\COC(C)=O)CC/C=C(/C=O)C[C@H](OC(C)=O)[C@@H]12 | 5.55 | 5.85 | 5.55
